Target: T1, F508del (Homo sapiens, UniProt P13569, DEL508-508)
T1 construct: expressed in transfected cells
Assay: Protocol 1: membrane potential optical assay (FLIPR III, voltage sensing dye), identification of potentiator compounds
Format: cell-based
Settings: Table 3, compounds of Table 1
Outline: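 NIH3T3 F508del cells, 27° C × 24 hrs; compound/DMSO pretreat → redistribution dye load → single forskolin addition with Cl⁻ gradient (gluconate-substituted bath, HEPES pH 7.4). FLIPR III membrane-potential fluorescence read.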

T1 sequence (P13569 with tags, fused parts or gaps DEL508-508): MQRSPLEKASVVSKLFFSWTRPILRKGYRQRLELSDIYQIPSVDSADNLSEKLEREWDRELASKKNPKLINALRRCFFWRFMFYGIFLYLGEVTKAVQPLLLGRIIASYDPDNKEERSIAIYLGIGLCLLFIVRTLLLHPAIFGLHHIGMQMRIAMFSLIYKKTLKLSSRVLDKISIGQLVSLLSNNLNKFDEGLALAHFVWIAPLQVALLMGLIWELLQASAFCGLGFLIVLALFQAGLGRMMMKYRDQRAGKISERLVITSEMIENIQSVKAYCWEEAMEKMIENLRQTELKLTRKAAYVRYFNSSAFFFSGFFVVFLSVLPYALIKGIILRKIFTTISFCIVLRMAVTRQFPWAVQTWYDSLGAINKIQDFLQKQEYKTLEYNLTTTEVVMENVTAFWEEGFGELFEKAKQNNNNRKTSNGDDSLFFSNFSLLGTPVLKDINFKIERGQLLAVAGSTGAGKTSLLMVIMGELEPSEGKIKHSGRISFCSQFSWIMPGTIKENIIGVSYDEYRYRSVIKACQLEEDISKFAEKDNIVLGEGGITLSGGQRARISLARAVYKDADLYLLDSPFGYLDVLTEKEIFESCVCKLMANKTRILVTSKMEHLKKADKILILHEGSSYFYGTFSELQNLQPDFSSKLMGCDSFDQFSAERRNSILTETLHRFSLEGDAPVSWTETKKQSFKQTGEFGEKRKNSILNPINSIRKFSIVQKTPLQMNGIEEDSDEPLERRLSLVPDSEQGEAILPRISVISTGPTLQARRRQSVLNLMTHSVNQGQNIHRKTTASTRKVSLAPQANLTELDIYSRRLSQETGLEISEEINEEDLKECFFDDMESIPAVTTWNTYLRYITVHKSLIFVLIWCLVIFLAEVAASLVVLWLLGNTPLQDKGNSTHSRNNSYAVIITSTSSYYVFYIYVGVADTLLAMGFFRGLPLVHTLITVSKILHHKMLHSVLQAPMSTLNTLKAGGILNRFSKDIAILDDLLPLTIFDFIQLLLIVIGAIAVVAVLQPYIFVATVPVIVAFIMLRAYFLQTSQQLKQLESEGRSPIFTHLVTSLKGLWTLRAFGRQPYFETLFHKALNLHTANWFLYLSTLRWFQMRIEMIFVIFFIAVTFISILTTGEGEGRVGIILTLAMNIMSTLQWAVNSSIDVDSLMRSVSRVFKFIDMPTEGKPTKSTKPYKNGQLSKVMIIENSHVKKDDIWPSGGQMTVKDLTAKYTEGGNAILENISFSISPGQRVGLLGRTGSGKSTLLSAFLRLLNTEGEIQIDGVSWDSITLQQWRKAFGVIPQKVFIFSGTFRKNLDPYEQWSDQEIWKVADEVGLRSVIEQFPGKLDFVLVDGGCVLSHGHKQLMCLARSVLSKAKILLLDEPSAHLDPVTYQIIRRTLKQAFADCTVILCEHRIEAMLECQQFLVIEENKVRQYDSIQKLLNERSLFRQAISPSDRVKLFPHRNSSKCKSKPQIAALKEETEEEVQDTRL

Compound | EC30
CC1CN(c2nc(C(C)(C)C)ccc2C(=O)NS(=O)(=O)c2cccc(N)n2)C(C)(C)C1 (centres unmarked) [Compound 1511] | +++ (“+++” means <3 uM)
CCOc1cc(C)cc(-c2ccc(C(=O)NS(=O)(=O)c3cccc(N)n3)c(N3C[C@@H](C)CC3(C)C)n2)n1 [Compound 1512, N-[(6-amino-2-pyridyl)sulfonyl]-6-(6-ethoxy-4-methyl-2-pyridyl)-2-[(4S)-2,2,4-trimethylpyrrolidin-1-yl]pyridine-3-carboxamide] | +++ (“+++” means <3 uM)
Cc1cc(C)c(Oc2nc(C3=CCCCCC3)ccc2C(=O)NS(=O)(=O)c2cccc(N)n2)c(C)c1 [Compound 1513, N-[(6-amino-2-pyridyl)sulfonyl]-6-(cyclohepten-1-yl)-2-(2,4,6-trimethylphenoxy)pyridine-3-carboxamide] | +++ (“+++” means <3 uM)
Cc1cc(OC(C)C)ncc1-c1ccc(C(=O)NS(=O)(=O)c2cccc(N)n2)c(N2[C@H](C)CC[C@@H]2C)n1 [Compound 1514, N-[(6-amino-2-pyridyl)sulfonyl]-2-[(2R,5S)-2,5-dimethylpyrrolidin-1-yl]-6-(6-isopropoxy-4-methyl-3-pyridyl)pyridine-3-carboxamide] | +++ (“+++” means <3 uM)
CC(CO)COc1cc(F)cc(-c2ccc(C(=O)NS(=O)(=O)c3ccccc3)c(N3C[C@@H](C)CC3(C)C)n2)c1 (stereo partly drawn) [Compound 1515, N-(benzenesulfonyl)-6-[3-fluoro-5-(3-hydroxy-2-methyl-propoxy)phenyl]-2-[(4S)-2,2,4-trimethylpyrrolidin-1-yl]pyridine-3-carboxamide] | +++ (“+++” means <3 uM)
Cc1cc(C)c(Oc2nc(N3CCCC3C)c(C)cc2C(=O)NS(=O)(=O)c2cccc(N)n2)c(C)c1 (centres unmarked) [Compound 1516, N-[(6-amino-2-pyridyl)sulfonyl]-5-methyl-6-(2-methylpyrrolidin-1-yl)-2-(2,4,6-trimethylphenoxy)pyridine-3-carboxamide] | +++ (“+++” means <3 uM)
Cc1cc(C)c(Oc2nc(C3=CCSCC3)ccc2C(=O)NS(=O)(=O)c2cccc(N)n2)c(C)c1 [Compound 1517, N-[(6-amino-2-pyridyl)sulfonyl]-6-(3,6-dihydro-2H-thiopyran-4-yl)-2-(2,4,6-trimethylphenoxy)pyridine-3-carboxamide] | +++ (“+++” means <3 uM)
Cc1cc(C)c(Oc2nc(C3=CC4CCC3C4)ccc2C(=O)NS(=O)(=O)c2cccc(N)n2)c(C)c1 (centres unmarked) [Compound 1518, N-[(6-amino-2-pyridyl)sulfonyl]-6-(3-bicyclo[2.2.1]hept-2-enyl)-2-(2,4,6-trimethylphenoxy)pyridine-3-carboxamide] | +++ (“+++” means <3 uM)
Cc1cc(C)c(Oc2nc(C3CCC(C(F)(F)F)CC3)ccc2C(=O)NS(=O)(=O)c2cccc(N)n2)c(C)c1 (centres unmarked) [Compound 1519, N-[(6-amino-2-pyridyl)sulfonyl]-6-[4-(trifluoromethyl)cyclohexyl]-2-(2,4,6-trimethylphenoxy)pyridine-3-carboxamide] | +++ (“+++” means <3 uM)
CC(C)COc1cc(F)cc(-c2ccc(C(=O)NS(=O)(=O)N3CCCC(C)(NC(=O)OC(C)(C)C)C3)c(N3CC(C)CC3(C)C)n2)c1 (centres unmarked) [Compound 1520, tert-butyl N—[1-[[6-(3-fluoro-5-isobutoxy-phenyl)-2-(2,2,4-trimethylpyrrolidin-1-yl)pyridine-3-carbonyl]sulfamoyl]-3-methyl-3-piperidyl]carbamate] | +++ (“+++” means <3 uM)
CC(C)COc1cc(F)cc(-c2ccc(C(=O)NS(=O)(=O)N3CC4CC4(N)C3)c(N3C[C@@H](C)CC3(C)C)n2)c1 (stereo partly drawn) [Compound 1521, N-[(5-amino-3-azabicyclo[3.1.0]hexan-3-yl)sulfonyl]-6-(3-fluoro-5-isobutoxy-phenyl)-2-[(4S)-2,2,4-trimethylpyrrolidin-1-yl]pyridine-3-carboxamide] | +++ (“+++” means <3 uM)
